Assay results taken from article PMC6713165, “Identification of 1H-pyrazolo[3,4-b]pyridine derivatives as potent ALK-L1196M inhibitors” (Journal of Enzyme Inhibition and Medicinal Chemistry, 2019).
Several values for one entry are separate records, joined by “and”; a condition that tells them apart may be missing. Equal values may be shown once. Read-outs that look alike come from different tables or passages of the source.

Tests used:
[1] = biological target: ALK-wt (Homo sapiens, UniProt Q9UM73); test: Radiometric biochemical kinase assay, ALK-wt
ALK-wt, sequence (Q9UM73 19-1620): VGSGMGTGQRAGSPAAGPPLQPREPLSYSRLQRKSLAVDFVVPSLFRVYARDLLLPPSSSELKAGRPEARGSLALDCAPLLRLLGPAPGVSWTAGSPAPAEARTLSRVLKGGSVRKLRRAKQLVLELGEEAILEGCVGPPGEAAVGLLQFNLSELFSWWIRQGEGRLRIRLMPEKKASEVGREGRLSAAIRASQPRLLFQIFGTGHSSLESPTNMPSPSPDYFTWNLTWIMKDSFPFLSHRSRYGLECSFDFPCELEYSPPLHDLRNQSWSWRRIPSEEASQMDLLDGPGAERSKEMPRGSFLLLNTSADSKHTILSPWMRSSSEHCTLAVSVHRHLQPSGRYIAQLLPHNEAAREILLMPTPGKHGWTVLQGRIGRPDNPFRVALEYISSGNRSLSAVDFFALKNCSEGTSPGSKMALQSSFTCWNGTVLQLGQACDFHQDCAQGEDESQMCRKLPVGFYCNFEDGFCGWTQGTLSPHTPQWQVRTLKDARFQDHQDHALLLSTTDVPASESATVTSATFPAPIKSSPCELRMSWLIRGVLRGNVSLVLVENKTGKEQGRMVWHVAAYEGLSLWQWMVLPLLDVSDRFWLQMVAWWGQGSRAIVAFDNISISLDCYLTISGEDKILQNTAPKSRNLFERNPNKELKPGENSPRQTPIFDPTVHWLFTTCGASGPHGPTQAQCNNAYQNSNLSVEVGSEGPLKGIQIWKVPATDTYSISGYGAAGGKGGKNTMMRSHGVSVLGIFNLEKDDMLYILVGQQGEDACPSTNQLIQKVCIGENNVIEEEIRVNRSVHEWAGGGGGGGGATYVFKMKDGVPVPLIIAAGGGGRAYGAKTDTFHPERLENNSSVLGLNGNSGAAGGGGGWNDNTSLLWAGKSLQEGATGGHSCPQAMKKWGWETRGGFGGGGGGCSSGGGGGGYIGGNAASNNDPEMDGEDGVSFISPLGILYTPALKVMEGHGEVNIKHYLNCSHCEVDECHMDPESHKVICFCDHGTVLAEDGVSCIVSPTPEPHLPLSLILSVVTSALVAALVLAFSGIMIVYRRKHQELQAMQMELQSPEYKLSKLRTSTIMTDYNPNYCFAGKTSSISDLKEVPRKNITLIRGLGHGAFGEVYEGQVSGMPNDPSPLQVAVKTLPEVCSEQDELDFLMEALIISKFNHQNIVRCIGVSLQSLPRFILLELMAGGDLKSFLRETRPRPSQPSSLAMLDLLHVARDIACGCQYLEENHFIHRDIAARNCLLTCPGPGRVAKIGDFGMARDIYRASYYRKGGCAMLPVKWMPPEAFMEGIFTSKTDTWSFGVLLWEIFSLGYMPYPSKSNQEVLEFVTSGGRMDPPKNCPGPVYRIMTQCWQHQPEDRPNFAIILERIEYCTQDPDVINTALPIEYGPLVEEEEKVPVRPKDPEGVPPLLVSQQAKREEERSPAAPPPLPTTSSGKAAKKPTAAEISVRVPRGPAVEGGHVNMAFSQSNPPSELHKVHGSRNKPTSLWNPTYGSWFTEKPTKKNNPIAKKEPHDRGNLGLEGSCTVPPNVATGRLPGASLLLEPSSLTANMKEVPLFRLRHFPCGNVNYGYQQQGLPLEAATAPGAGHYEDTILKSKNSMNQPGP
Method: (§1) Biochemical kinase assay was performed by methods previously reported. Kinase reactions of all test compounds except 10g were carried out at 10 µM ATP. Kinase reaction of 10g was performed at three different concentrations of ATP (10/50/100 µM).

[2] = biological target: ALK-L1196M (Homo sapiens, UniProt Q9UM73, L1196M); test: Radiometric biochemical kinase assay, ALK-L1196M; settings: radiometric kinase assay, 10 µM ATP
ALK-L1196M, sequence (Q9UM73 19-1620 L1196M): as the sequence (Q9UM73 19-1620) above, with L1178M counted along it
Method: as §1

[3] = biological target: ALK-F1174L (Homo sapiens, UniProt Q9UM73, F1174L); test: Radiometric biochemical kinase assay, ALK-F1174L
ALK-F1174L, sequence (Q9UM73 19-1620 F1174L): as the sequence (Q9UM73 19-1620) above, with F1156L counted along it
Method: as §1

[4] = biological target: ALK-T1151-L1152insT (Homo sapiens, UniProt Q9UM73, INS1151T); test: Radiometric biochemical kinase assay, ALK-T1151-L1152insT
ALK-T1151-L1152insT, sequence (Q9UM73 with tags, fused parts or gaps INS1151T limits assumed): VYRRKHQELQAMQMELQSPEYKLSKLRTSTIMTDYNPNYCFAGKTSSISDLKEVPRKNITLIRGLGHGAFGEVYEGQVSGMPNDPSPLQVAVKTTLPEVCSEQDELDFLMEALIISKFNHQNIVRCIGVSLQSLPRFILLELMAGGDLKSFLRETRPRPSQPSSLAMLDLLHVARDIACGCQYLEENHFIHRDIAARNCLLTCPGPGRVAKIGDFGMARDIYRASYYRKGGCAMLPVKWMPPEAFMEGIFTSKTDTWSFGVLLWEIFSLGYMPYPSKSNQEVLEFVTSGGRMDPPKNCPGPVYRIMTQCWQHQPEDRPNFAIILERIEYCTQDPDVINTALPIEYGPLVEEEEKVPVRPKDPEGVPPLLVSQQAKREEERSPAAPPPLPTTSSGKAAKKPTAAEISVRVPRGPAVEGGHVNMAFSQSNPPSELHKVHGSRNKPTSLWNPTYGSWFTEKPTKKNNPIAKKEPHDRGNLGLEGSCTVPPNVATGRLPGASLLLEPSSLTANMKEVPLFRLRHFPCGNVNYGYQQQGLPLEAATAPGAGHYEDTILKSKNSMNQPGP
Method: as §1

[5] = biological target: IRK (insulin receptor kinase) (Homo sapiens, UniProt P06213); test: Biochemical kinase assay, IRK
IRK (insulin receptor kinase), sequence (P06213 28-1382): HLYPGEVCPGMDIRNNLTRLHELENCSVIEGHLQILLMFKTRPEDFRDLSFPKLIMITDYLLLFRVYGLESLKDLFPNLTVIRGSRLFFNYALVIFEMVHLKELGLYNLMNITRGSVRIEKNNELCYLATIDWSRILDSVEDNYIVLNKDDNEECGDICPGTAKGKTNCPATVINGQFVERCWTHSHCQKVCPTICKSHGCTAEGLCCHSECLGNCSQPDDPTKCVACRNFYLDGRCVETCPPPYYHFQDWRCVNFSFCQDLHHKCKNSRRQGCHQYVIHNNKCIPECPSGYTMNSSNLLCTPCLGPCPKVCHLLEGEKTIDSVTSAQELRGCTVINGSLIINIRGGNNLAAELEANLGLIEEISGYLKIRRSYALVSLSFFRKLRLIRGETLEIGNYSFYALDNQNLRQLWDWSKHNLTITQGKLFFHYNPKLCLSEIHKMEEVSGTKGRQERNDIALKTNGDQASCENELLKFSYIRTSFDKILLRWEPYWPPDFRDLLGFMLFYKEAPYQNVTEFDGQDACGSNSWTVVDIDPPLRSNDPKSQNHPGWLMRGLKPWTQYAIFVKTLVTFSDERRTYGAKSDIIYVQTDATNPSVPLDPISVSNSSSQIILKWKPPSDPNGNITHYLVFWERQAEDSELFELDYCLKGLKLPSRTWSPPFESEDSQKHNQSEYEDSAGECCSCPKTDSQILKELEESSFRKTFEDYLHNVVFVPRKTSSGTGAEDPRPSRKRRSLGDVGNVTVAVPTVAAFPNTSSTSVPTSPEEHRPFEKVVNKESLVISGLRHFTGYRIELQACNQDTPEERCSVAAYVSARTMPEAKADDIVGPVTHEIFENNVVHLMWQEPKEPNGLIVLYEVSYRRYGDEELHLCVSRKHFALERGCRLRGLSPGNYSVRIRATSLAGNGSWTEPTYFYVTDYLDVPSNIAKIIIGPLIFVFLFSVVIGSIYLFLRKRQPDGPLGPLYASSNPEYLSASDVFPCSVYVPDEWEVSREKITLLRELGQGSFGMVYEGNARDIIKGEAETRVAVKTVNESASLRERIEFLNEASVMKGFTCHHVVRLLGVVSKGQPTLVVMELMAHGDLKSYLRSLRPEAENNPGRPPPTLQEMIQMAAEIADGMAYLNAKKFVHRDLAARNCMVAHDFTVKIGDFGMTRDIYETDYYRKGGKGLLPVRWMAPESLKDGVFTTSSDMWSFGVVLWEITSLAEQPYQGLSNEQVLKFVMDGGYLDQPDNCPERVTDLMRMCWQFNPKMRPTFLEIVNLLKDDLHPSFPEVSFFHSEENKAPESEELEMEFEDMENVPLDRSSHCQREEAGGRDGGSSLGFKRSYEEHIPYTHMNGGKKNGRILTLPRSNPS
Method: as §1

[6] = biological target: c-Src (Homo sapiens, UniProt P12931); test: Biochemical kinase assay, c-Src
c-Src, sequence (P12931 whole entry): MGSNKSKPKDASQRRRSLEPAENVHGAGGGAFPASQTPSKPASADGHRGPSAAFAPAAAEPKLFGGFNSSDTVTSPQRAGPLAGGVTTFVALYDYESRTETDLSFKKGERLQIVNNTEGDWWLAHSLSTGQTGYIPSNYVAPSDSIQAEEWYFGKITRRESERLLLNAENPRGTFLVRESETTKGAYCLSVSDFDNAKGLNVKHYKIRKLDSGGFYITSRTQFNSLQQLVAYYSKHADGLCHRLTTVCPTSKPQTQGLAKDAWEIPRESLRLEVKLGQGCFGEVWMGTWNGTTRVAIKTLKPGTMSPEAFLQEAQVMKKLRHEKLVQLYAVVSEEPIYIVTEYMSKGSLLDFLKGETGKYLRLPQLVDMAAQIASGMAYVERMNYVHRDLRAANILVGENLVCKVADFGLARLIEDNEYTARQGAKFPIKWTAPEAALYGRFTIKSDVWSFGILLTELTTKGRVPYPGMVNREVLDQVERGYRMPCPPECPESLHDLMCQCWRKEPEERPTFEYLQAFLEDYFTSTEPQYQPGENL
Method: as §1

[7] = biological target: Lyn (Homo sapiens, UniProt P07948); test: Biochemical kinase assay, Lyn
Lyn, sequence (P07948 whole entry): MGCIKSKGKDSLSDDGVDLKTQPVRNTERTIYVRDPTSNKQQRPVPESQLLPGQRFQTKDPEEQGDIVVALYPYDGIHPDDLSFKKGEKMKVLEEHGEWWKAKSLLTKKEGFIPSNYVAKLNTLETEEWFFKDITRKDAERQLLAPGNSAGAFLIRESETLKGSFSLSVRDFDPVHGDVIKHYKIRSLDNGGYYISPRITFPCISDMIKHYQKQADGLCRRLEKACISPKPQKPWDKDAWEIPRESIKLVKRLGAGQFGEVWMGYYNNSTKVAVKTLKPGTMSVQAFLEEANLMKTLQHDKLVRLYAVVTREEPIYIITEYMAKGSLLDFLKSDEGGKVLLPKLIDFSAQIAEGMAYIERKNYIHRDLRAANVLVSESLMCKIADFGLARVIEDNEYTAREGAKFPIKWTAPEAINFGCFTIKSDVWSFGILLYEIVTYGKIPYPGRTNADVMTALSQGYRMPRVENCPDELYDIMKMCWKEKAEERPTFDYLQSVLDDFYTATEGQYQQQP
Method: as §1

[8] = system: H2228 (EML4-ALK) cells; test: Anti-proliferation assay (CTG), H2228; type: cell-based; settings: Homo sapiens, NCI-H2228, 72 h, mean ± SD of three independent experiments
Method: (§2) ALK wt-TEL, ALK L1196M-TEL transformed Ba/F3 and H2228 cell lines were cultured in RPMI1640 (Welgene, # LM011-01). […] Parental Ba/F3 cells were cultured in RPMI1640 media supplemented with 10% foetal bovine serum and 1% penicillin/streptomycin solution in the presence of IL-3. The cells were maintained in a humidified atmosphere containing 5% CO2 at 37 °C.
(§3) Cells (ALK wt-TEL, ALK L1196M-TEL and Parental Ba/F3: 1 × 10^4, H2228: 5 × 10^3) were plated in 96 well tissue culture plates. Each compound was added to each well at 10 dose points of three-fold serial dilution in DMSO. After treatment with each compound for 72 h, CTG assay solution (Promega, # G7572) was added to each well.

[9] = system: ALK L1196M-TEL Ba/F3 cells; test: Anti-proliferation assay (CTG), ALK L1196M-TEL Ba/F3; type: cell-based
Method: as §2, §3

[10] = Permeability assessment using Caco-2 cells; type: in vitro ADME, human; settings: human
Method: (§4) Stock solutions (10 mM) of reference compounds and 10g were diluted to a concentration of 10 µM with the transport buffer (HBSS + 1%BSA) and the test compounds were applied to the apical or basolateral side of the cell monolayer. […] In addition, the efflux ratio of each compound was also determined. Reference compounds and 10g were quantified by LC-MS/MS analysis based on the peak area ratio of analyte/the internal standard.

[11] = system: Caco-2 cells; test: Permeability assessment using Caco-2 cells; type: in vitro ADME, human
Method: as §4

[12] = system: ALK L1196M-TEL Ba/F3 cells; test: Apoptosis analysis (annexin V-FITC/PI, FACS), ALK L1196M-TEL Ba/F3; type: cell-based
Method: (§5) After 24–48 h following compound treatment, cells were harvested and stained with annexin V (1:500 diluted in annexin V buffer) for 30 min and PI (1:200) solution for 30 min. 1 × 10^6 cells were analysed using flow cytometric analysis. For the cell cycle arrest analysis, cells were harvested by trypsinisation and fixed with 70% ethanol overnight at −20 °C. The next day, cells were harvested and washed with cold DPBS at 500 × g.

[13] = system: H2228 cells; test: Apoptosis analysis (annexin V-FITC/PI, FACS), H2228; type: cell-based; settings: H2228, 48 h, in words
Method: as §5

[14] = system: H2228 cells; test: Cell cycle arrest analysis (PI, FACS), H2228; type: cell-based; settings: H2228, 1 µM, 24 h, in words
Method: After 24–48 h following compound treatment, cells were harvested and stained with annexin V (1:500 diluted in annexin V buffer) for 30 min and PI (1:200) solution for 30 min. 1 × 10^6 cells were analysed using flow cytometric analysis. For the cell cycle arrest analysis, cells were harvested by trypsinisation and fixed with 70% ethanol overnight at −20 °C. The next day, cells were harvested and washed with cold DPBS at 500 × g. The cells were suspended in RNase/PI solution (Cell Signalling Technologies, # 4087).

[15] = system: ALK autophosphorylation and STAT3, ERK, PLC-gamma phosphorylation in ALK wt-TEL Ba/F3, ALK L1196M-TEL Ba/F3 and H2228 cell lines; test: Western blot of ALK autophosphorylation and downstream signalling; type: cell-based; settings: in words
Method: Cells were harvested and lysed using IP buffer containing 50 mM HEPES (pH 7.4), 1% Triton X-100, 2 mM EDTA, 150 mM NaCl, 2.5 mM NaF, 5 mM Na3VO4, protease inhibitor cocktail tablet (Roche, # 11–878-580–001). The protein concentration was determined by Bradford assay. Proteins were separated using SDS-PAGE and transferred onto NC membrane. The membranes were blocked using 5% skim milk in TBS-T buffer. The rabbit polyclonal antibody against phospho-ALK (Tyr1604, # 3341), phospho-ERK1/2 (Thr202/Tyr204, # 8544), phospho- PLC-gamma (Tyr783, # 14008), phospho-STAT3 (Tyr705, # 4074) and cleaved caspase3 (# 9661) were purchased from Cell Signalling Technologies, and PARP1/2 (H-250, # sc-7150) and anti-β-actin (# sc-47778) antibody was obtained from Santa Cruz Biotechnology. All primary antibodies were diluted in TBS-T at 1:1000. Each primary antibody was incubated overnight at 4 °C, followed by the secondary antibody treatment for 1 h at room temperature. Secondary antibodies were purchased from genDEPOT. Proteins were detected using ECL substrate, and then exposed to X-ray film.

## CN1CCN(c2ccc(C(=O)Nc3n[nH]c4ncc(S(=O)(=O)c5cccc(F)c5)cc34)cc2)CC1 [10g, N-(5-((3-Fluorophenyl)sulfonyl)-1H-pyrazolo[3,4-b]pyridin-3-yl)-4–(4-methylpiperazin-1-yl)benzamide]
[1]; 10 vs 100 µM ATP
  change in IC50 against ALK-wt on 10-fold increase in ATP concentration: 50 fold
[1]; IC50 ALK-wt [ATP](50 μM), 50 μM ATP
  IC50: 17.3 nM
[1]; IC50 ALK-wt [ATP](100 μM), 100 μM ATP
  IC50: 24 nM and 24.9 nM
[1]; radiometric kinase assay, 10 µM ATP, read-out: IC50 ALK-wt
  IC50: < 0.5 nM
[2]
  IC50: < 0.5 nM
[3]
  IC50: 8.17 nM
[4]
  IC50: 6.19 nM
[5]
  IC50: 404 nM
[6]
  IC50: 7 nM
[7]
  IC50: 33 nM
[8]
  GI50: 219 ± 50 nM
[9]; Mus musculus, BaF3, 72 h, CTG, mean ± SD of three independent experiments, read-out: GI50 Ba/F3 cell lines ALKL1196M-TEL
  GI50: 129 ± 20 nM
[9]; in words
  differential cytotoxicity against ALK-L1196M Ba/F3 cells vs. parental Ba/F3 cells compared with crizotinib: much more favourable differential cytotoxicity
[10]; Caco-2, Caco-2, 10 µM, 120 min, 37 °C, HBSS + 1%BSA, read-out: Mean Papp A to B
  Papp A→B at 120 min, 10 µM: 2.56 ×10⁻⁶ cm/s
[10]; Caco-2, Caco-2, 10 µM, 120 min, read-out: Mean recovery % A to B
  recovery at 120 min, 10 µM: 74.2%
[10]; Caco-2, Caco-2, 10 µM, 120 min, read-out: Mean recovery % B to A
  recovery at 120 min, 10 µM: 92.3%
[10]; Caco-2, Caco-2 permeability class from Papp (A to B), read-out: Rank Papp
  Papp A→B at 120 min, 10 µM: 2.5 to 10 ×10⁻⁶ cm/s
[10]; Caco-2, 10 µM, 120 min
  efflux ratio at 120 min, 10 µM: 1.85
[10]; Caco-2, 10 µM, 120 min, 37 °C, HBSS + 1%BSA
  Papp B→A at 120 min, 10 µM: 4.74 ×10⁻⁶ cm/s
[11]; Caco-2 permeability class from Papp (A to B)
  Rank Papp: moderate
[11]; P-gp substrate status from efflux ratio
  Rank P-gp: not a substrate
[12]; ALK L1196M-TEL Ba/F3, 24 h, in words
  number of apoptotic cells (FACS): increases the number of apoptotic cells in a dose-dependent manner
[12]; ALK L1196M-TEL Ba/F3, in words
  apoptosis induction compared with crizotinib: more effectively than does crizotinib
[13]
  apoptosis induction (FACS): induces apoptosis in H2228 cells in a dose dependent fashion
[14]
  cell cycle arrest: significant enhancement of G1-S arrest
[15]; 1 and 10 µM, 2 h, ALK wt-TEL Ba/F3, ALK L1196M-TEL Ba/F3 and H2228 cell lines
  ALK autophosphorylation (western blot): effectively attenuates
[15]; 2 h, dose-dependent
  phosphorylation levels of STAT3, ERK and PLC-gamma (western blot): moderately suppressed
[15]; ALK L1196M-TEL Ba/F3 cells
  inhibition of ALK autophosphorylation compared with crizotinib: more effective than crizotinib
